Results published in US20250197407A1 (Jazz Pharmaceuticals Ireland Limited, priority 2022, published 2025).

Each molecule was assayed against SOS1/KRAS WT (Homo sapiens (Human), UniProt Q07889) (assay: SOS1/KRAS WT HTRF binding assay (FRET-based protein-protein interaction)). Conditions: inhibition of His6-SOS1 (aa564-1049, 40 nM) binding to GST-KRAS-WT (aa1-188, 40 nM); at least two independent replicates; read-out: SOS1/KRAS WT HTRF Binding assay pIC50 (converted).
Text: The capacity of compounds to inhibit SOS1 binding to KRAS-WT (wild-type) was quantified using a FRET-based protein-protein interaction assay. The assay is based on the transfer of energy between two fluorophores, a donor and an acceptor, when in close proximity. In this instance, the donor is a Europium-conjugated α-GST antibody that binds to GST-tagged KRAS-WT, and the acceptor is an XL665-conjugated α-His 6 antibody that binds to His 6-tagged SOS1. Binding of SOS1 to KRAS-WT results in an increased fluorescent signal at emission wavelength of 665 nm which can be detected on the EnVision plate reader. Compounds that inhibit binding will reduce the 665 nm signal emitted. Recombinant KRAS-WT protein (40 nM; Human KRAS, aa1-188 recombinant protein with N-terminal GST-tag) and SOS1 protein (40 nM; Human SOS1 exchange domain, aa564-1049 with N-terminal 6His-tag) were mixed together in assay buffer (5 mM HEPES pH7.3, 150 mM NaCl, 10 mM EDTA, 5 mM MgCl2, 0.05% BSA, 0.0025% NP-40, 1 mM DTT and 100 mM KF) and incubated at room temperature with a dose response of compound in a 384-well low volume white plate and a final volume of 5 ul. After a 60 minute incubation, 5 ul of 4 nM anti-GST-Eu(K) (Cisbio, France) combined with 20 nM anti-6His-XL665 (Cisbio, France), diluted in assay buffer, was added to the plate. Following a further 4 hr incubation at room temperature, time-resolved fluorescence was measured on the EnVision plate reader. DMSO (0.05%) and 10 μM reference compound were used to generate the Max and Min assay signals, respectively. Data was analysed using a four-parameter logistic model to calculate IC50 values, with at least two independent replicates performed for each compound.
Data was analyzed using a four-parameter logistic model to calculate IC50 values, with at least two independent replicates performed for each compound.

Chain of SOS1/KRAS WT (Q07889 564-1049): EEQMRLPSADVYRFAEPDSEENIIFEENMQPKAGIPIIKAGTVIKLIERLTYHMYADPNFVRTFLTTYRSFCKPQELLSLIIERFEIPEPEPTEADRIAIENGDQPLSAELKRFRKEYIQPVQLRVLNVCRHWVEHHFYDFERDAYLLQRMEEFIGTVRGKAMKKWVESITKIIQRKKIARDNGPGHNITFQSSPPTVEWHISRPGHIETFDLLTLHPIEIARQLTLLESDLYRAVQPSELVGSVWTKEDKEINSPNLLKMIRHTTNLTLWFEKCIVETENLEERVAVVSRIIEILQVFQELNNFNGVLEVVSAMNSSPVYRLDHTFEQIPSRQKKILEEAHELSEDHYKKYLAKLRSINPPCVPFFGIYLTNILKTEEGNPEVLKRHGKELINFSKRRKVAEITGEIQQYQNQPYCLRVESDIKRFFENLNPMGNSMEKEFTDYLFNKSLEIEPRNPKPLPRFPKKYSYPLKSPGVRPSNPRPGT

| Compound | IC50 [nM] |
| --- | --- |
| CCOC1(C)C(=O)N(C)c2cc3c(N[C@H](C)c4cccc(C(F)(F)CO)c4C)nnc(C)c3cc21 (stereo partly drawn) [Compound 134, 3-ethoxy-1,3,5-trimethyl-8-[[(1R)-1-[3-(1,1-difluoro-2-hydroxy-ethyl)-2-methyl-phenyl]ethyl]amino]pyrrolo[2,3-g]phthalazin-2-one] | 6.17 |
| Cc1nnc(N[C@H](C)c2cccc(C(F)(F)F)c2)c2cc3c(cc12)n(C)c(=O)n3CC(F)F [Compound 50, 3-(2,2-difluoroethyl)-1,8-dimethyl-5-[[(1R)-1-[3-(trifluoromethyl)phenyl]ethyl]amino] imidazo[4,5-g]phthalazin-2-one] | 13.2 |
| Cc1nnc(N[C@H](C)c2cccc(C(F)(F)CO)c2)c2cc3c(cc12)n(C)c(=O)n3C1CC1 [Compound 70, 3-cyclopropyl-1,8-dimethyl-5-[[(1R)-1-[3-(1,1-difluoro-2-hydroxy-ethyl)phenyl]ethyl]amino]imidazo [4,5-g]phthalazin-2-one] | 11.5 |
| COC1(C)C(=O)N(C)c2cc3c(N[C@H](C)c4cccc(C(F)(F)CO)c4)nnc(C)c3cc21 (stereo partly drawn) [Compound 101, 3-methoxy-1,3,5-trimethyl-8-[[(1R)-1-[3-(1,1-difluoro-2-hydroxy-ethyl)phenyl]ethyl]amino]pyrrolo [2,3-g]phthalazin-2-one] | 10 |
| Cc1nnc(N[C@H](C)c2cccc(C(F)(F)F)c2)c2cc3c(cc12)n(C)c(=O)n3C [Compound 3, 1,3,8-trimethyl-5-[[(1R)-1-[3-(trifluoromethyl)phenyl]ethyl]amino] imidazo[4,5-g]phthalazin-2-one] | 20.9 |
| Cc1nnc(N[C@H](C)c2cccc(C(F)(F)C(C)(C)O)c2)c2cc3c(cc12)C1(CCCC1)C(=O)N3C [Compound 188, 1′,5′-dimethyl-8′-[[(1R)-1-[3-(1,1-difluoro-2-hydroxy-2-methyl-propyl)phenyl]ethyl]amino]spiro [cyclopentane-1,3′-pyrrolo[2,3-g]phthalazine]-2′-one] | 9.33 |
| Cc1c([C@@H](C)Nc2nnc(C)c3cc4c(cc23)C2(CCOCC2)C(=O)N4C)cccc1C(F)(F)C(C)(C)O [Compound 131, 1,8-dimethyl-5-[[(1R)-1-[3-(1,1-difluoro-2-hydroxy-2-methyl-propyl)-2-methyl-phenyl]ethyl]amino]spiro[pyrrolo [3,2-g]phthalazine-3,4′-tetrahydropyran]-2-one] | 7.94 |
| Cc1nnc(N[C@H](C)c2cccc(C(F)(F)C(C)(C)O)c2)c2cc3c(cc12)C1(CCOCC1)C(=O)N3C [Compound 84, 1,5-dimethyl-8-[[(1R)-1-[3-(1,1-difluoro-2-hydroxy-2-methyl-propyl)phenyl]ethyl]amino]spiro [pyrrolo[2,3-g]phthalazine-3,4′-tetrahydropyran]-2-one] | 8.91 |
| Cc1nnc(N[C@H](C)c2cccc(C(F)(F)F)c2)c2cc3c(cc12)n(C)c(=O)n3CC#N [Compound 148, 2-[1,8-dimethyl-2-oxo-5-[[(1R)-1-[3-(trifluoromethyl)phenyl]ethyl]amino]imidazo[4,5-g]phthalazin-3-yl]acetonitrile] | 21.4 |
| COC1(C)C(=O)N(C)c2cc3c(N[C@H](C)c4cc(F)cc(C(F)(F)CO)c4F)nnc(C)c3cc21 (stereo partly drawn) [Compound 141, 3-methoxy-1,3,5-trimethyl-8-[[(1R)-1-[3-(1,1-difluoro-2-hydroxy-ethyl)-2,5-difluoro-phenyl]ethyl]amino]pyrrolo[2,3-g]phthalazin-2-one] | 20 |
| CCN1C(=O)C(C)(OC)c2cc3c(C)nnc(N[C@H](C)c4cccc(C(F)(F)C(C)(C)O)c4C)c3cc21 (stereo partly drawn) [Compound 169, 1-ethyl-3-methoxy-3,5-dimethyl-8-[[(1R)-1-[3-(1,1-difluoro-2-hydroxy-2-methyl-propyl)-2-methyl-phenyl]ethyl]amino]pyrrolo[2,3-g]phthalazin-2-one] | 10.2 |
| Cc1nnc(N[C@H](C)c2cccc(C(F)(F)CO)c2)c2cc3c(cc12)C(C)(C)C(=O)N3C(C)C [Compound 82, 1-isopropyl-3,3,5-trimethyl-8-[[(1R)-1-[3-(1,1-difluoro-2-hydroxy-ethyl)phenyl]ethyl]amino]pyrrolo [2,3-g]phthalazin-2-one] | 9.33 |
| Cc1nnc(N[C@H](C)c2cccc(C(F)(F)C(C)(C)O)c2)c2cc3c(cc12)C(C)(C)C(=O)N3C1CC1 [Compound 65, 1-cyclopropyl-3,3,5-trimethyl-8-[[(1R)-1-[3-(1,1-difluoro-2-hydroxy-2-methyl-propyl)phenyl]ethyl]amino]pyrrolo [2,3-g]phthalazin-2-one] | 9.77 |
| Cc1nnc(NC(C)c2cccc(C(F)(F)F)c2)c2cc3c(cc12)n(C)c(=O)n3C1CCCC1 (stereo not shown) [Compound 1, 3-cyclopentyl-1,8-dimethyl-5-[1-[3-(trifluoromethyl)phenyl]-ethylamino]^− imidazo[4,5-g]phthalazin-2-one] | 37.2 |
| Cc1nnc(N[C@H](C)c2cccc(C(F)(F)C(C)(C)O)c2)c2cc3c(cc12)C(C)(C)C(=O)N3C(C)C [Compound 81, 1-isopropyl-3,3,5-trimethyl-8-[[(1R)-1-[3-(1,1-difluoro-2-hydroxy-2-methyl-propyl)phenyl]ethyl]amino]pyrrol o[2,3-g]phthalazin-2-one] | 8.51 |
| Cc1nnc(N[C@H](C)c2cccc(C(F)F)c2F)c2cc3c(cc12)n(C)c(=O)n3[C@H]1CCOC1 [Compound 146, 5-[[(1R)-1-[3-(difluoromethyl)-2-fluoro-phenyl]ethyl]amino]-1,8-dimethyl-3-[(3S)-tetrahydrofuran-3-yl]imidazo[4,5-g]phthalazin-2-one] | 12.3 |
| COCC1(C)C(=O)N(C2CC2)c2cc3c(N[C@H](C)c4cccc(C(F)(F)C(C)(C)O)c4C)nnc(C)c3cc21 (stereo partly drawn) [Compound 137, 1-cyclopropyl-8-[[(1R)-1-[3-(1,1-difluoro-2-hydroxy-2-methyl-propyl)-2-methyl-phenyl]ethyl]amino]-3-(methoxymethyl)-3,5-dimethyl-pyrrolo[3,2-g]phthalazin-2-one] | 15.8 |
| Cc1nnc(N[C@H](C)c2cccc(C(F)(F)CO)c2F)c2cc3c(cc12)C1(CCCC1)C(=O)N3C [Compound 189, 1′,5′-dimethyl-8′-[[(1R)-1-[3-(1,1-difluoro-2-hydroxy-ethyl)-2-fluoro-phenyl]ethyl]amino]spiro[cyclopentane-1,3′-pyrrolo[2,3-g]phthalazine]-2′-one] | 6.76 |
| Cc1nnc(N[C@H](C)c2cccc(C(F)(F)F)c2)c2cc3c(cc12)n(C)c(=O)n3C1CCOC1 (stereo partly drawn) [Compound 144, 1,8-dimethyl-3-tetrahydrofuran-3-yl-5-[[(1R)-1-[3-(trifluoromethyl)phenyl]ethyl]amino]imidazo[4,5-g]phthalazin-2-one] | 11.7 |
| Cc1nnc(N[C@H](C)c2cccc(C(F)(F)C(C)(C)O)c2F)c2cc3c(cc12)N(C)C(=O)C3(C)C [Compound 98, 1,3,3,8-tetramethyl-5-[[(1R)-1-[3-(1,1-difluoro-2-hydroxy-2-methyl-propyl)-2-fluoro-phenyl]ethyl]amino]pyrrolo[3,2-g]phthalazin-2-one] | 12 |
| COC1(C)C(=O)N(C2CC2)c2cc3c(N[C@H](C)c4cccc(C(F)(F)CO)c4C)nnc(C)c3cc21 (stereo partly drawn) [Compound 143, 1-cyclopropyl-3-methoxy-3,5-dimethyl-8-[[(1R)-1-[3-(1,1-difluoro-2-hydroxy-ethyl)-2-methyl-phenyl]ethyl]amino]pyrrolo[2,3-g]phthalazin-2-one] | 11 |
| COCCn1c(=O)n(C)c2cc3c(C)nnc(N[C@H](C)c4cccc(C(F)(F)F)c4)c3cc21 [Compound 8, 3-(2-methoxyethyl)-1,8-dimethyl-5-[[(1R)-1-[3-(trifluoromethyl)phenyl]ethyl]amino]imidazo[4,5-g]phthalazin-2-one] | 12.6 |
| Cc1c([C@@H](C)Nc2nnc(C)c3cc4c(cc23)N(C2CC2)C(=O)C4(C)C)cccc1C(F)(F)CO [Compound 66, 1-cyclopropyl-3,3,5-trimethyl-8-[[(1R)-1-[3-(1,1-difluoro-2-hydroxy-ethyl)-2-methyl-phenyl]ethyl]amino]pyrrolo[2,3-g]phthalazin-2-one] | 8.51 |
| COC1(C)C(=O)N(C)c2cc3c(N[C@H](C)c4cc(F)cc(C(F)(F)C(C)(C)O)c4C)nnc(C)c3cc21 (stereo partly drawn) [Compound 181, 3-methoxy-1,3,5-trimethyl-8-[[(1R)-1-[3-(1,1-difluoro-2-hydroxy-2-methyl-propyl)-5-fluoro-2-methyl-phenyl]ethyl]amino]pyrrolo[2,3-g]phthalazin-2-one] | 13.2 |
| Cc1c([C@@H](C)Nc2nnc(C)c3cc4c(cc23)N(C(C)C)C(=O)C4(C)C)cccc1C(F)(F)C(C)(C)O [Compound 124, 1-isopropyl-3,3,5-trimethyl-8-[[(1R)-1-[3-(1,1-difluoro-2-hydroxy-2-methyl-propyl)-2-methyl-phenyl]ethyl]amino]pyrrolo[2,3-g]phthalazin-2-one] | 6.17 |
